Assay results reported in patent US20250019644A1, “Quantitatively Mapping Amino Acid Properties (QMAP) Cell Culture Media” (UNIVERSITY OF IOWA RESEARCH FOUNDATION, priority 2023, published 2025).

Legend:
[1] = tested on: HT29; assay: CellTiter-Glo Luminescent Cell Viability Assay; type: cell-based, human; settings: 2 mM, 24 hours, DMEM
Method: (§1) HT29, 293T, U2OS, and 3T3-LI cells were plated on an opaque 96-well plate in 1:1 DMEM. […] At the appropriate time point, 100 μl of CellTiter-Glo reagent (Promega #G7570) was added to each well. The plate was gently mixed for 2 minutes to induce lysis, incubated at room-temperature for 10 minutes, and then luminescence was measured.
(§2) To test whether tryptophan inhibition of growth applied to other cell lines and persisted in conventional cell culture media, two human cancer cell lines (HT29, U2OS), a transformed human embryonic kidney cell line (293T), and a mouse, fibroblast-like cell line (3T3-L1) were grown in DMEM for 24 hours and then treated with 2 mM tryptophan or vehicle. After 24 hours, cells were assayed by CellTiter-Glo, which indicates cell viability by measuring ATP production.

[2] = tested on: 293T; assay: CellTiter-Glo Luminescent Cell Viability Assay; type: cell-based, human; settings: 2 mM, 24 hours, DMEM
Method: as §1, §2

[3] = tested on: 3T3-L1; assay: CellTiter-Glo Luminescent Cell Viability Assay; type: cell-based, mouse; settings: 2 mM, 24 hours, DMEM
Method: as §1, §2

[4] = tested on: HCT116 cells; assay: Metabolic profiling of tryptophan metabolite-treated cells, LC-MS; type: cell-based, human
Method: […] Cell plates were lyophilized overnight before metabolite extraction. To extract metabolites, 1 ml of an extraction buffer composed of 2:2:1 methanol/acetonitrile/water with internal standards at 1 μg/ml each (D4-Citric Acid, 13C5-Glutamine, 13C5-Glutamic Acid, 13C6-Lysine, 13C5-Methionine, 13C3-Serine, D4-Succinic Acid, 13C11-Tryptophan, and D8-Valine; Cambridge Isotope Laboratories) was added to the lyophilized cell samples. Cells were scraped for 20 seconds and collected into Eppendorf tubes, flash-frozen in liquid nitrogen, and sonicated for 10 minutes.
Samples were then placed on a rotating platform at −20° C. for 1 hour and centrifuged at 4° C. for 10 minutes at 21,000×g. 300 μL of the cleared metabolite extracts were transferred to fresh tubes for additional processing. An equal volume of each extract was pooled to serve as a quality control (QC) sample, which was analyzed at the beginning, end, and at a regular interval throughout an instrument run. Extraction buffer alone was analyzed as a processing blank sample. Metabolite extracts, the quality control sample, and the processing blank were evaporated to dryness using a speed-vacuum.
Dried extracts were reconstituted in 30 μL of acetonitrile/water (1:1, V/V), vortexed for 10 minutes, and incubated at −20° C. for 18 hours. Samples were then centrifuged at 4° C. for 2 minutes at 21,000×g and the supernatant was transferred to autosampler vials for analysis.
For LC chromatographic separation, 2 μL of reconstituted metabolite extracts, QC sample, and processing blank were run on a Millipore SeQuant ZIC-PHILIC (2.1×150 mm, 5 um particle size, Millipore Sigma #150460) column with a ZIC-PHILIC guard column (20×2.1 mm, Millipore Sigma #150437) attached to a Thermo Vanquish Flex UHPLC. The mobile phase comprised Buffer A [20 mM (NH4)2CO3, 0.1% NH4OH (v/v)] and Buffer B [acetonitrile]. The chromatographic gradient was run at a flow rate of 0.150 mL/min as follows: 0-20 min-linear gradient from 80 to 20% Buffer B; 20-20.5 min-linear gradient from 20 to 80% Buffer B; and 20.5-28 min-hold at 80% Buffer B. Data were acquired using a Thermo Q Exactive MS operated in full-scan, polarity-switching mode with a spray voltage set to 3.0 kV, the heated capillary held at 275° C., and the HESI probe held at 350° C. The sheath gas flow was set to 40 units, the auxiliary gas flow was set to 15 units, and the sweep gas flow was set to 1 unit. MS data acquisition was performed with polarity switching in a range of m/z 70-1,000, with the resolution set at 70,000, the AGC target at 10e6, and the maximum injection time at 200 ms. The QC sample was analyzed at the beginning and end of the LC-MS run and after every 10 samples.
Acquired LC-MS and GC-MS data were processed using the Thermo Scientific TraceFinder software. Targeted metabolites were identified by matching accurate mass and retention times to the University of Iowa Metabolomics Core Facility's in-house library of confirmed standards. After peak area integration by TraceFinder, NOREVA software was applied for signal drift correction on a metabolite-to-metabolite basis using the pooled QC sample that had been analyzed throughout the instrument run. Within individual samples, Post-NOREVA metabolite levels were divided by the total metabolite load (sum of all metabolite values) to equally weight individual metabolites for comparison across samples.

`N[C@@H](Cc1c[nH]c2ccccc12)C(=O)O` [tryptophan, L-tryptophan] was tested. Which “cell viability compared to vehicle” value [1] did it give?
The value was “significant decreases”.

And the “cell viability compared to vehicle” value [2]?
The value was “significant decreases”.

What about the “cell viability compared to vehicle” value [3] of the same compound?
Its value is “significant decreases”.

And the xanthommatin level ([4]; IFN-γ (50 ng/μL) for 24 hours, then tryptophan 1 mM for 6 hours, QMAP)?
Its xanthommatin level is “only tryptophan metabolite to significantly increase”.

What about the 3HK level ([4]; tryptophan supplementation) of the same compound?
The 3HK level was “not detectable”.
